Laboratory results from EP1884251A1, “Use of fragrance compositions for the prevention of the development of indole based malodours from faecal and urine based soils” (Takasago International Corporation, priority 2006, dated 2008).

Test: Change in fragrance compound concentration during the indole inhibition test (GC-MS at start and after 24 hours)
Format: physicochemical
Settings: in fresh human urine, room temperature; for Decrease in Fragrance Compounds after 24 hours (%) 0-30%: category 0-30%; for Decrease in Fragrance Compounds after 24 hours (%) >60%: category >60%
Procedure: Advantageously, the appropriate fragrance compounds may be selected by using the following preferred indole inhibition test which comprises the following steps: • A) 0.02g of fragrance and 0.02g of Tergitol 15-s-12 was added to 7g of fresh human urine in a 20 ml Headspace vial sealed with a PTFE faced septum and well mixed for 10 minutes using a magnetic stirrer. For a blank to test the suitability of a batch of fresh human urine, 7g of human urine was used with 0.02g of demineralised water and 0.02g of Tergitol 15-s-12. If a control was required, to test the efficacy of product base for example, the control contained 7g of human urine to which was added 0.02g of fragrance, minus the active agents and 0.02g of Tergitol 15-s-12. • B) The vials are placed in an autosampler tray at room temperature. • C) At different times the headspace in the vials is sampled for 5 minutes at 35°C by an SPME fibre (PDMS fibre ex Supelco) after 10 minutes at 35°C (incubation time). • D) The SPME fibre is desorbed 1 minute at 265°C from a CTC Combipal autosampler and injected in splitless mode onto an Agilent GC-MS 5973N with a HP-INNOWAX column (30m x 0.25 x 0.25). (Oven conditions : 50°C during 2min - to 250°C at 10°C/min - 250°C during 5 minutes). • E) Under the above GC-MS conditions, indole has a retention time of 19.14 minutes, and can be recognised by its characteristic ions (m/z 117, m/z 89 and m/z 90). • F) In the range of values determined in this work, the area of the indole peak (117) is linearly related to the actual concentration in the vial, and was used without further correction to establish the concentration of indole in "Active" and "Blank" and if present any "Control" fragrances. • G) The material is deemed to be active if the indole concentration in the test sample is below 0.01ppm (wt/wt) after 24 hours incubation at room temperature and the indole in the blank samples is between 0.25ppm (wt/wt) and 1.25ppm (wt/wt) indole after 24 hours storage at room temperature. • H) The change in the active ingredient concentration is determined by comparing measurements at the start of the experiment and after 24 hours using appropriate characteristic ions.
This can be determined by measuring the fragrance concentration in the sample containing the test cocktail at the start and end of the indole inhibition test as described in step I of the test. If the difference between the measurements is less than 60% preferably less than 30% then the material is considered as not to have changed sufficiently to alter the fragrance note and to be particularly preferred.
A sample of fresh human urine is divided into equal portions and a fragrance containing one or more of the effective materials was added as described in the Indole Inhibition Test. […] The samples were stored and after 24 hours the indole content and fragrance active content is measured by gas chromatography with mass spectrometric (GCMS) detection. Those formulations containing active ingredients prevented the formation of indole while both the unfragranced and the alcohol containing control samples had much greater quantities of indole present. Also for the active compounds a GCMS measurement indicated the extent to which the compound was itself consumed as part of the process. In table 2 the decrease in fragrance components has been classified into 3 categories and the letter Y indicates the appropriate category for the compounds which have been measured. The absence of a letter Y in any category means that the decrease has not been measured for that compound. Table 2. Examples of effective materials

## O=Cc1ccccc1 [Benzaldehyde]
  Decrease in Fragrance Compounds after 24 hours (%) 0-30%: Y (Y= Yes)

## O=C/C=C/c1ccccc1 [Cinnamic aldehyde]
  Decrease in Fragrance Compounds after 24 hours (%) 0-30%: Y (Y= Yes)

## CCC/C=C/C=O [Trans 2 hexenal]
Category 0-60%
  Decrease in Fragrance Compounds after 24 hours (%) 0-60%: Y (Y= Yes)

## C=C(C)C1CC=C(C=O)CC1 (stereo not shown) [Perilla aldehyde]
  Decrease in Fragrance Compounds after 24 hours (%) 0-30%: Y (Y= Yes)

## CC(C)=CCCC(C)=CC=O [Citral]
  Decrease in Fragrance Compounds after 24 hours (%) 0-30%: Y (Y= Yes)

## CCCCCCCCCCC=O [Aldehyde C11]
  Decrease in Fragrance Compounds after 24 hours (%) >60%: Y (Y= Yes)

## CCc1occc(=O)c1O [Veltol Plus]
  Decrease in Fragrance Compounds after 24 hours (%) >60%: Y (Y= Yes)
